From a polymer gas permeability compilation come the findings set out here.

Compound `*c1ccc(C(C)(C)c2ccc(-n3c(=O)c4cc5c(=O)n(*)c(=O)c5cc4c3=O)cc2)cc1` (repeat unit) had a CH4 permeability of 0.901 Barrer, a CO2 permeability of 26.9 Barrer, an H2 permeability of 17 Barrer and an N2 permeability of 1.5 Barrer. This compound also showed an O2 permeability of 7.1 Barrer.
`*c1ccc(-c2ccc(Oc3ccc4c(c3)C3(CC4(C)C)CC(C)(C)c4ccc(Oc5ccc(-c6ccc(N7C(=O)c8ccc(C(c9ccc%10c(c9)C(=O)N(*)C%10=O)(C(F)(F)F)C(F)(F)F)cc8C7=O)cc6)cc5C(F)(F)F)cc43)c(C(F)(F)F)c2)cc1` (repeat unit) had a CH4 permeability of 1.21 Barrer, a CO2 permeability of 53 Barrer, an N2 permeability of 3.35 Barrer and an O2 permeability of 36.1 Barrer.
The compound `*OC1OC(CO[N+](=O)[O-])C(OC2OC(O[N+](=O)[O-])C(O*)C(O)C2O[N+](=O)[O-])C(O)C1O[N+](=O)[O-]` (repeat unit) had an H2 permeability of 2 Barrer, an N2 permeability of 0.12 Barrer and an O2 permeability of 0.6 Barrer.
For `*Oc1ccc(C(C)(C)c2ccc(Oc3ccc(S(=O)(=O)c4ccc(*)c5ccccc45)cc3)cc2)cc1` (repeat unit), the CH4 permeability came out at 0.08 Barrer, the CO2 permeability was 4.7 Barrer, the N2 permeability came out at 0.15 Barrer and the O2 permeability stood at 1.2 Barrer.
On to `*c1ccc(Oc2ccc(C(c3ccc(Oc4ccc(-n5c(=O)c6cc7c(=O)n(*)c(=O)c7cc6c5=O)cc4C(F)(F)F)cc3)(C(F)(F)F)C(F)(F)F)cc2)c(C(F)(F)F)c1` (repeat unit), for which the CH4 permeability amounted to 0.937 Barrer, the CO2 permeability is 24.6 Barrer, the H2 permeability was 50.4 Barrer and the N2 permeability turned out to be 1.5 Barrer. The compound also displayed an O2 permeability of 7.06 Barrer.
Compound `*c1ccc(Oc2ccc(-c3ccc(-c4ccc(-c5ccc(Oc6ccc(N7C(=O)c8ccc(C(c9ccc%10c(c9)C(=O)N(*)C%10=O)(C(F)(F)F)C(F)(F)F)cc8C7=O)cc6)c(C(F)(F)F)c5)cc4)cc3)cc2C(F)(F)F)cc1` (repeat unit) yielded a CH4 permeability of 1.51 Barrer, a CO2 permeability of 36.6 Barrer, an N2 permeability of 3.11 Barrer and an O2 permeability of 17.1 Barrer.
On to `*CC(*)c1ccc([Si](C)(C)CCCC(F)(F)F)cc1` (repeat unit), for which the CH4 permeability came out at 22 Barrer, the CO2 permeability amounted to 284 Barrer, the H2 permeability was 109 Barrer and the N2 permeability came out at 11.8 Barrer. The compound also gave an O2 permeability of 38.1 Barrer.
In the same order, the values of `*C(=C(*)c1ccc(C[Si](C)(C)C)cc1)c1ccccc1` (repeat unit) are 120 Barrer, 640 Barrer, 420 Barrer, 44 Barrer and 140 Barrer.
`*Oc1ccc(-c2nn(-c3ccc(S(=O)(=O)c4ccc(*)cc4)cc3)c(=O)c3ccccc23)cc1` (repeat unit) gave a CO2 permeability of 0.92 Barrer, an H2 permeability of 2.4 Barrer, an N2 permeability of 0.027 Barrer and an O2 permeability of 0.15 Barrer.
`*c1ccc(Oc2ccc(N3C(=O)c4cc5c(cc4C3=O)S(=O)(=O)c3cc4c(cc3S5(=O)=O)C(=O)N(*)C4=O)cc2)cc1` (repeat unit) gave a CH4 permeability of 0.18 Barrer, a CO2 permeability of 9.6 Barrer, an H2 permeability of 19 Barrer and an N2 permeability of 0.27 Barrer. For the same compound, the O2 permeability worked out at 1.6 Barrer.
In the same order, the values of `*C(C)=C(*)CCC` (repeat unit) are 21 Barrer, 120 Barrer, 160 Barrer, 12 Barrer and 39 Barrer.
Consider `*Oc1ccc(S(=O)(=O)c2ccc(Oc3ccc(C4(c5ccc(*)c(C)c5)CCCCC4)cc3C)cc2)cc1` (repeat unit), for which the CH4 permeability was found to be 0.0393 Barrer, the CO2 permeability amounted to 1.4 Barrer, the N2 permeability stood at 0.0569 Barrer and the O2 permeability was determined as 0.41 Barrer.
In turn, `*C(=C(*)c1ccc2c(c1)C(C)(C)c1ccccc1-2)c1ccc(F)cc1` (repeat unit) showed a CH4 permeability of 11000 Barrer, a CO2 permeability of 21000 Barrer, an H2 permeability of 11000 Barrer and an N2 permeability of 4700 Barrer. In addition, the O2 permeability is 6200 Barrer.
`*C/C=C\C*` (repeat unit): the CO2 permeability turned out to be 138 Barrer, the H2 permeability came to 41.9 Barrer, the N2 permeability is 15.8 Barrer and the O2 permeability was found to be 19 Barrer.
The compound `*Oc1ccc(S(=O)(=O)c2ccc(Oc3ccc(Cc4ccc(*)cc4)cc3)cc2)cc1` (repeat unit) had a CH4 permeability of 0.188 Barrer, a CO2 permeability of 4.5 Barrer, an N2 permeability of 0.2 Barrer and an O2 permeability of 1.1 Barrer.
Take `*C(=C(*)c1ccc2c(c1)C(C)(C)c1ccccc1-2)c1ccc(C(C)(C)C)cc1` (repeat unit): the CH4 permeability amounted to 6600 Barrer, the CO2 permeability came to 11000 Barrer, the H2 permeability came out at 6300 Barrer and the N2 permeability was determined as 2500 Barrer. This compound came in with an O2 permeability of 3500 Barrer.
The compound `*c1ccc(Oc2ccc(N3C(=O)c4ccc(Oc5ccc(Oc6ccc7c(c6)C(=O)N(*)C7=O)cc5)cc4C3=O)cc2)cc1` (repeat unit) came in with an H2 permeability of 4 Barrer, an N2 permeability of 0.034 Barrer and an O2 permeability of 0.216 Barrer.
In turn, `*C(=C(*)c1cccc(O)c1)c1ccc(C(C)(C)C)cc1` (repeat unit) yielded a CH4 permeability of 490 Barrer, a CO2 permeability of 3000 Barrer, an H2 permeability of 1700 Barrer and an N2 permeability of 210 Barrer. The compound also yielded an O2 permeability of 580 Barrer.
The like results for `*c1c(C)cc(-c2cc(C)c(N3C(=O)c4cc5c(cc4C3=O)C3(C)c4ccccc4C5(C)c4cc5c(cc43)C(=O)N(*)C5=O)c3ccccc23)c2ccccc12` (repeat unit) were, in that order, 187 Barrer, 3350 Barrer, 2740 Barrer, 158 Barrer and 696 Barrer.
The compound `*CN1CN(*)c2cc3c(cc21)C1(C)CCC3(C)c2cc(*)c(*)cc21` (repeat unit) showed a CH4 permeability of 222 Barrer, an H2 permeability of 4440 Barrer, an N2 permeability of 187 Barrer and an O2 permeability of 933 Barrer.
In turn, `*c1cc2c(cc1O)C1(CC2(C)C)CC(C)(C)c2cc(N3C(=O)C4C5C=CC(C6C(=O)N(*)C(=O)C56)C4C3=O)c(O)cc21` (repeat unit) showed a CH4 permeability of 4.6 Barrer, a CO2 permeability of 130 Barrer, an H2 permeability of 206 Barrer and an N2 permeability of 5.5 Barrer. Also, the O2 permeability worked out at 23 Barrer.
In the same order, the values of `*Oc1ccc(S(=O)(=O)c2ccc(Oc3ccc(C(c4ccc(*)cc4)(C(F)(F)F)C(F)(F)F)cc3)cc2)cc1` (repeat unit) are 0.345 Barrer, 8.45 Barrer, 15.1 Barrer, 0.431 Barrer and 2.33 Barrer.
In turn, `*CC(O)C*` (repeat unit) returned a CH4 permeability of 0.019 Barrer, a CO2 permeability of 0.4 Barrer, an N2 permeability of 0.015 Barrer and an O2 permeability of 0.1 Barrer.
Compound `*CC(*)OC(=O)c1ccccc1` (repeat unit) gave a CO2 permeability of 6.32 Barrer.
`*C(C(=O)OC(C)C)C(*)C(=O)OC(C)CC(C)C` (repeat unit) had an H2 permeability of 156 Barrer, an N2 permeability of 14 Barrer and an O2 permeability of 45 Barrer.
In the case of `*c1ccc2c(c1)-c1nc3ccc(-c4ccc5c(c4)nc4n5C(=O)c5cc(C(c6ccc7c(c6)C(=O)N(c6cc(C(c8ccc(O)c(N9C(=O)c%10ccc(C(*)(C(F)(F)F)C(F)(F)F)cc%10C9=O)c8)(C(F)(F)F)C(F)(F)F)ccc6O)C7=O)(C(F)(F)F)C(F)(F)F)ccc5-4)cc3n1C2=O` (repeat unit), the CO2 permeability came out at 15 Barrer, the N2 permeability worked out at 0.53 Barrer and the O2 permeability came out at 3.2 Barrer.
Turning to `*Oc1ccc(C(C)(C)c2ccc(Oc3ccc(S(=O)(=O)c4ccc(*)cc4)cc3)cc2)cc1` (repeat unit), the CH4 permeability amounted to 0.25 Barrer, the CO2 permeability amounted to 5.6 Barrer, the H2 permeability is 14 Barrer and the N2 permeability came out at 0.25 Barrer. The O2 permeability stood at 1.4 Barrer.
`*Oc1ccc(Oc2ccc3c(c2)-c2nc4cc(Oc5ccc6nc7n(c6c5)C(=O)c5cc(*)ccc5-7)ccc4n2C3=O)cc1` (repeat unit) showed an H2 permeability of 5.34 Barrer, an N2 permeability of 0.036 Barrer and an O2 permeability of 0.23 Barrer.
For `*c1cc(CCCCCCCCCCCC)c(*)s1` (repeat unit), the CO2 permeability was found to be 88.2 Barrer, the N2 permeability is 9.4 Barrer and the O2 permeability came out at 20.2 Barrer.
`*c1ccc(-c2nc3cc(-c4ccc5[nH]c(*)nc5c4)ccc3[nH]2)c(Br)c1` (repeat unit) had an H2 permeability of 0.38 Barrer and an O2 permeability of 0.006 Barrer.
Compound `*CN1CN(*)Cc2cc3c(cc21)C1c2ccccc2C3c2cc(*)c(*)cc21` (repeat unit) had a CH4 permeability of 562 Barrer, a CO2 permeability of 6830 Barrer, an H2 permeability of 6390 Barrer and an N2 permeability of 409 Barrer. For the same compound, the O2 permeability stood at 1900 Barrer.
In the same order, the values of `*C(C)=C(*)c1ccccc1` (repeat unit) are 5.2 Barrer, 174 Barrer, 199 Barrer, 12.2 Barrer and 36.8 Barrer.
In the same order, the values of `*Oc1c(C)cc(C(C)(C)c2cc(C)c(Oc3ccc(C(=O)c4ccc(*)cc4)cc3)c(C)c2)cc1C` (repeat unit) are 1.1 Barrer, 20 Barrer, 52 Barrer, 1.1 Barrer and 5.6 Barrer.
`*C(C(=O)OC(C)C)C(*)C(=O)OC(C)CC` (repeat unit) yielded an H2 permeability of 51 Barrer, an N2 permeability of 5 Barrer and an O2 permeability of 12 Barrer.
As to `*/C=C/C1CC(*)CC1[Si](C)(C)C` (repeat unit), the CH4 permeability was determined as 17 Barrer, the CO2 permeability is 89 Barrer, the H2 permeability amounted to 140 Barrer and the N2 permeability came out at 7.2 Barrer. The O2 permeability was found to be 30 Barrer.
